Patent US11370785B2, “Multicyclic compounds as farnesoid X receptor modulators” (BRISTOL-MYERS SQUIBB COMPANY, priority 2017, dated 2022)

Target: T1, human FXR (Homo sapiens, UniProt Q96RI1)
T1 construct: expressed in transfected cells; host or cells: HEK293 cells stably carrying a 5xGal4-response-element firefly luciferase reporter, transiently transfected with the pcDNA3.1-Gal4-FXR plasmid
T1 sequence (Q96RI1 262-486 limits assumed): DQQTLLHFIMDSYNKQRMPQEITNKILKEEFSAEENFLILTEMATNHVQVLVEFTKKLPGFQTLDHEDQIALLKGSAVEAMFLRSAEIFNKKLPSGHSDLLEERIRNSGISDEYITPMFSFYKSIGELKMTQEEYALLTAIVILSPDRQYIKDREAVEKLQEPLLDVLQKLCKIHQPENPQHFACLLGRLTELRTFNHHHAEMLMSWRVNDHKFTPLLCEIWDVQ
Assay: transient human FXR/Gal4-luciferase reporter assay
Format: cell-based
Conditions: Gal4-hFXR reporter in HEK293 cells; read-out: HLE GAL-FXR EC50
Outline: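 HEK293 cells stably carrying a 5×Gal4-response-element firefly luciferase reporter, transiently transfected with a CMV-driven Gal4 DNA-binding domain–human FXR ligand-binding domain fusion, were treated overnight at 37 °C with serially diluted compounds. Luminescence was read by Steady-Glo; DMSO background was subtracted and signal expressed as percent of the 8 μM GW-4064 response.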

Compound | EC50 [nM]
O=C(O)c1cc(C(F)(F)F)c2cc(N3CCC4(CC3)CC(Cc3c(-c5ccccc5C(F)(F)F)noc3C3CC3)C4)ccc2n1 [Example 4, 6-(2-((5-Cyclopropyl-3-(2-(trifluoromethyl)phenyl)isoxazol-4-yl)methyl)-7-azaspiro[3.5]nonan-7-yl)-4-(trifluoromethyl)quinoline-2-carboxylic acid] | 26

Same assay, conditions: Gal4-hFXR reporter in HEK293 cells; relative to 8 μM GW-4064; read-out: FXR EC50

Compound | EC50 [nM]
O=C(O)c1cc(C(F)(F)F)c2cc(N3CCC4(CC3)CC(=Cc3c(-c5ccccc5C(F)(F)F)noc3C(F)(F)F)C4)ccc2n1 [Example 167] | 47
COc1cc(C(=O)O)nc2ccc(N3CCC4(CC3)CC(=Cc3c(-c5ccccc5C(F)(F)F)noc3C(F)(F)F)C4)cc12 [Example 168] | 23
O=C(O)c1cc(F)c2nc(N3CCC4(CC3)CC(=Cc3c(-c5ccccc5C(F)(F)F)noc3C(F)(F)F)C4)sc2c1 [Example 169] | 650
N#Cc1cnc(N2CCC3(CC2)CC(Cc2c(-c4c(Cl)cccc4Cl)noc2C2CC2)C3)s1 [Example 170] | 1200
NC(=O)c1cc(OC2CCC2)c2cc(N3CCC4(CC3)CC(Cc3c(-c5ccccc5C(F)(F)F)noc3C3CC3)C4)ccc2n1 [Example 171] | 450
CN(C)C(=O)c1cc(OC2CCC2)c2cc(N3CCC4(CC3)CC(Cc3c(-c5ccccc5C(F)(F)F)noc3C3CC3)C4)ccc2n1 [Example 172, 4-Cyclobutoxy-6-(2-((5-cyclopropyl-3-(2-(trifluoromethyl)phenyl)isoxazol-4-yl)methyl)-7-azaspiro[3.5]nonan-7-yl)-N,N-dimethylquinoline-2-carboxamide] | 69
O=C(NC1CC1)c1cc(OC2CCC2)c2cc(N3CCC4(CC3)CC(Cc3c(-c5ccccc5C(F)(F)F)noc3C3CC3)C4)ccc2n1 [Example 173] | 1370
O=C(O)c1ccc(S(=O)(=O)N2CCC3(CC2)CC(Cc2c(-c4c(Cl)cccc4Cl)noc2C2CC2)C3)cc1 [Example 174] | 540
COc1cc([N+](=O)[O-])ccc1S(=O)(=O)N1CCC2(CC1)CC(Cc1c(-c3c(Cl)cccc3Cl)noc1C1CC1)C2 [Example 175] | 1500
CC(=O)Nc1ncc(S(=O)(=O)N2CCC3(CC2)CC(Cc2c(-c4c(Cl)cccc4Cl)noc2C2CC2)C3)s1 [Example 176] | 840
NC(=O)c1cc(C(F)(F)F)c2cc(N3CCC4(CC3)CC(Cc3c(-c5ccccc5C(F)(F)F)noc3C3CC3)C4)ccc2n1 [Example 177] | 2240
CN(C)C(=O)c1cc(C(F)(F)F)c2cc(N3CCC4(CC3)CC(Cc3c(-c5ccccc5C(F)(F)F)noc3C3CC3)C4)ccc2n1 [Example 178] | 154
CC(=O)N1CCc2cc(N3CCC4(CC3)CC(=Cc3c(-c5ccccc5OC(F)(F)F)noc3C3CC3)C4)ccc2C1 [Example 179, 1-(6-(2-((5-Cyclopropyl-3-(2-(trifluoromethoxy)phenyl)isoxazol-4-yl)methylene)-7-azaspiro[3.5]nonan-7-yl)-3,4-dihydroisoquinolin-2(1H)-yl)ethan-1-one] | 1600
NC(=O)N1CCc2cc(N3CCC4(CC3)CC(=Cc3c(-c5ccccc5OC(F)(F)F)noc3C3CC3)C4)ccc2C1 [Example 180, 6-(2-((5-Cyclopropyl-3-(2-(trifluoromethoxy)phenyl)isoxazol-4-yl)methylene)-7-azaspiro[3.5]nonan-7-yl)-3,4-dihydroisoquinoline-2(1H)-carboxamide] | 1400
O=C(c1cc(OC2CCC2)c2cc(N3CCC4(CC3)CC(Cc3c(-c5ccccc5C(F)(F)F)noc3C3CC3)C4)ccc2n1)N1CCOCC1 [Example 181] | 44
COCCN(C)C(=O)c1cc(OC2CCC2)c2cc(N3CCC4(CC3)CC(Cc3c(-c5ccccc5C(F)(F)F)noc3C3CC3)C4)ccc2n1 [Example 182] | 24
CCN(CC)C(=O)c1cc(OC2CCC2)c2cc(N3CCC4(CC3)CC(Cc3c(-c5ccccc5C(F)(F)F)noc3C3CC3)C4)ccc2n1 [Example 183] | 51
CCN(C)C(=O)c1cc(OC2CCC2)c2cc(N3CCC4(CC3)CC(Cc3c(-c5ccccc5C(F)(F)F)noc3C3CC3)C4)ccc2n1 [Example 184] | 37
O=C(c1cc(OC2CCC2)c2cc(N3CCC4(CC3)CC(Cc3c(-c5ccccc5C(F)(F)F)noc3C3CC3)C4)ccc2n1)N1CC(F)(F)C1 [Example 186] | 1930
O=C(c1cc(OC2CCC2)c2cc(N3CCC4(CC3)CC(Cc3c(-c5ccccc5C(F)(F)F)noc3C3CC3)C4)ccc2n1)N1CCC1 [Example 187] | 428
O=C(c1cc(OC2CCC2)c2cc(N3CCC4(CC3)CC(Cc3c(-c5ccccc5C(F)(F)F)noc3C3CC3)C4)ccc2n1)N1CCCC1 [Example 188] | 76
O=C(c1cc(OC2CCC2)c2cc(N3CCC4(CC3)CC(Cc3c(-c5ccccc5C(F)(F)F)noc3C3CC3)C4)ccc2n1)N1CCCCC1 [Example 189] | 34
O=C(c1cc(OC2CCC2)c2cc(N3CCC4(CC3)CC(Cc3c(-c5ccccc5C(F)(F)F)noc3C3CC3)C4)ccc2n1)N1CCC(O)CC1 [Example 190] | 11
CN(C)C(=O)c1cc(C(F)(F)F)c2cc(N3CCC4(CC3)CC(=Cc3c(-c5ccccc5C(F)(F)F)noc3C(F)(F)F)C4)ccc2n1 [Example 191] | 306
CN(C)C(=O)c1cc(F)c2nc(N3CCC4(CC3)CC(=Cc3c(-c5c(Cl)cncc5Cl)noc3C(F)(F)F)C4)sc2c1 [Example 192] | 677
O=C(O)c1ccc2cc(N3CCC4(CC3)CC(=Cc3c(-c5ccccc5C(F)(F)F)noc3C(F)(F)F)C4)ccc2n1 [Example 193] | 502

Tested on: Fgf15
Assay: Acute mouse in vivo assay, Fgf15 gene expression in ileum
Conditions: 3 mg/kg single oral dose, @ 6 h
Experimental: Acute Mouse In Vivo Assay:
Male, C57BL6/NTac mice, weighing 25-28 g, are purchased from Taconic Labs (Hudson, N.Y.) and maintained on Teklad Global 18% Protein Rodent Diet (Harlan Laboratories). After 1 week acclimation, mice are sorted into groups based upon body weight. Mice are administered a single oral dose of vehicle or experimental compound. Systemic compound exposure is evaluated in plasma derived from blood collected via the submandibular vein at 1 hour post-dose, and at study termination (6 h). At study termination, the animals are euthanized and rapidly dissected. The medial lobe of the liver is divided, with one half being homogenized and analyzed for compound exposure, and the other half saved in RNAlater (Thermo-Fisher Scientific). The ileum is also dissected and preserved in RNAlater. Tissue samples in RNAlater are homogenized with MP Biomedicals' beads. […] RNA Concentration is determined with the Nano-Drop 8000 Spectrophotometer (Thermo Fisher). […] Mouse genes analyzed include Nr0b2 (which encodes the small heterodimer partner, SHP), Abcb11 (which encodes the bile salt excretion pump, BSEP), Cyp7a1, & Cyp8b1 in liver, and Fgf15, Fabp6 (which encodes ileal bile acid binding protein, I-BABP), Slc51a (which encodes organic solute transporter alpha subunit, OSTA), and Slc51b (which encodes organic solute transporter beta subunit, OSTB) in the ileum. […]

Compound | Fgf15 expression, fold increase relative to vehicle control
O=C(O)c1cc(C(F)(F)F)c2cc(N3CCC4(CC3)CC(Cc3c(-c5ccccc5C(F)(F)F)noc3C3CC3)C4)ccc2n1 [Example 4, 6-(2-((5-Cyclopropyl-3-(2-(trifluoromethyl)phenyl)isoxazol-4-yl)methyl)-7-azaspiro[3.5]nonan-7-yl)-4-(trifluoromethyl)quinoline-2-carboxylic acid] | +24 x
